Measured values from patent publication US7855191B2, “Agent having a destructive effect on malignant tumors and method for the production thereof” (C.Y.L. Pharmazeutika GmbH, priority 2002, dated 2010).

Key:
[1] = system: mammary carcinoma; settings: rats with 1-methyl-1-nitro urea induced mammary cancer; cited from earlier work
[2] = Compatibility of selenium compounds with alpha-ketoglutaric acid in the preparation; format: physicochemical; settings: for reaction / compatibility with alpha-ketoglutaric acid: on addition to the preparation of EP 326826 B1
Protocol: Thus initially the research was carried out by the addition of selenium in the form of selenite. […] Attempts were made to suppress this redox reaction by incorporating the selenium in organic compounds. As such a compound, finally seleno-methionine was selected. […] However, with the addition of this compound as a complement to the composition of European Patent 326826 B1 there is a danger that this substance will be incorporated into body proteins, and effect which might reduce the desired effect of the N-acetyl-seleno-L-methionine or cause the effect of that compound to be completely lost.

[3] = system: malignant brain tumors; settings: cited from earlier work

Q: With `O=[Se]([O-])[O-].[Na+].[Na+]` [selenite, Na-selenite] as the compound, how does the “density of the intra tumoral microvessels in the mammary carcinoma” value [1] read?
A: The value was “significantly reduced”.

Q: What about the “reaction / compatibility with alpha-ketoglutaric acid” value [2] of the same compound?
A: Its value is “amorphous selenium precipitated out”.

Q: And the “general well-being of the patients” value ([3]; manifested by erythrocyte number, hemoglobin value, thrombocyte count)?
A: The value was “improvement in the general well-being”.

Q: And the “patients who felt a reduction in unpleasant side effects” value ([3]; patients with malignant brain tumors)?
A: The value was 76%.

Q: Which “Maillard reaction with ketoglutaric acid” value ([2]; especially at the higher temperatures of heat sterilization) does the source give for `C[Se]CC[C@H](N)C(=O)O` [seleno-methionine] here?
A: The value was “undergoes a Maillard reaction with the ketoglutaric acid”.

Q: And the “reaction / compatibility with alpha-ketoglutaric acid” value [2]?
A: Its value is “does not react with the alphaketoglutaric acid”.
